Measurements reported in patent US20230295234A1, “ANTIMICROBIAL PEPTIDOMIMETICS” (SPEXIS AG, priority 2020, published 2023).
Peptide text beside a SMILES is read from it.

Experiments:
[1] = test system: Klebsiella pneumoniae SSI3010; conditions: SSI3010
In short: (§1)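 Two-fold serial dilutions of peptide, in water with polysorbate 80 (0.002% final), met bacteria adjusted to 0.5 McFarland then diluted to about 5×10^5 CFU/mL. Medium was cation-adjusted Mueller-Hinton II broth; peptide stocks were 1 mg/mL in sterile water.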

[2] = test system: Escherichia coli ATCC 25922; conditions: ATCC 25922
In short: as §1

[3] = test system: Escherichia coli MCR-1 Af 45; conditions: MCR-1 Af 45
In short: as §1

[4] = test system: human red blood cells (hRBC); assay: Hemolysis of human red blood cells; assay type: cell-based; conditions: red cells of human, 1 h
In short: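 PBS-washed human red blood cells (20% v/v) were incubated with peptide at 200 μg/mL for 1 h at 37 °C with shaking. Supernatant OD was read at 540 nm after 8-fold dilution. Hemolysis is expressed as percent of the water control.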

| SMILES | Klebsiella pneumoniae SSI3010 MIC [1] | Escherichia coli ATCC 25922 MIC [2] | Escherichia coli MCR-1 Af 45 MIC [3] | Hemolysis at 0.2 g/L [4] |
| --- | --- | --- | --- | --- |
| CC[C@H](C)[C@H](NC(=O)[C@@H](NC(=O)[C@@H]1C[C@@H](O)CN1C(=O)[C@@H](NC(=O)[C@@H]1C[C@@H](O)CN1C(=O)[C@H](CCCCN)NC(=O)[C@@H](N)CCCCN)C(C)C)[C@@H](C)CC)C(=O)N[C@@H](Cc1ccc(O)cc1)C(=O)N[C@@H]1C(=O)N[C@@H](CC(N)=O)C(=O)N[C@@H](CCCNC(=N)N)C(=O)N[C@@H](CCN)C(=O)N[C@@H]([C@@H](C)O)C(=O)N[C@H](CCN)C(=O)N[C@@H](CCCCN)C(=O)N[C@H](C(=O)N[C@@H](CCN)C(=O)N[C@@H](CCCNC(=N)N)C(=O)N[C@@H](Cc2ccc(O)cc2)C(=O)O)CSSC1(C)C [Example 116, Lys-Lys-Hyp-Val-Hyp-Ile-Ile-Tyr-Pen-Asn-Arg-Dab-Thr-^DDab-Lys-Cys-Dab-Arg-Tyr] (HELM PEPTIDE1{K.K.[Hyp].V.[Hyp].I.I.Y.[Pen].N.R.[Dab].T.[NCC[C@@H](N[*:1])C(=O)[*:2]].K.C.[Dab].R.Y}$PEPTIDE1,PEPTIDE1,9:R3-16:R3$$$V2.0) | 0.125 µg/mL | 0.0625 µg/mL | 0.0625 µg/mL | 0% |
| CC[C@H](C)[C@H](NC(=O)[C@@H](NC(=O)[C@@H]1C[C@@H](O)CN1C(=O)[C@@H](NC(=O)[C@@H]1C[C@@H](O)CN1C(=O)[C@H](CCCCN)NC(=O)[C@@H](N)CCCCN)C(C)C)[C@@H](C)CC)C(=O)N[C@@H](Cc1ccc(O)cc1)C(=O)N[C@H]1CSSC[C@@H](C(=O)N[C@@H](CCN)C(=O)N[C@@H](CCCNC(=N)N)C(=O)N[C@@H](Cc2ccc(O)cc2)C(=O)O)NC(=O)[C@H](CCCCN)NC(=O)[C@@H](CCN)NC(=O)[C@H]([C@@H](C)O)NC(=O)[C@H](CCN)NC(=O)[C@H](CCCNC(=N)N)NC(=O)[C@H](CC(N)=O)NC1=O [Example 117, Lys-Lys-Hyp-Val-Hyp-Ile-Ile-Tyr-Cys-Asn-Arg-Dab-Thr-^DDab-Lys-Cys-Dab-Arg-Tyr] (HELM PEPTIDE1{K.K.[Hyp].V.[Hyp].I.I.Y.C.N.R.[Dab].T.[NCC[C@@H](N[*:1])C(=O)[*:2]].K.C.[Dab].R.Y}$PEPTIDE1,PEPTIDE1,9:R3-16:R3$$$V2.0) | 0.125 µg/mL | 0.03125 µg/mL | 0.0625 µg/mL | 0% |
| CC[C@H](C)[C@H](NC(=O)[C@@H]1C[C@@H](O)CN1C(=O)[C@@H](NC(=O)[C@@H]1CCCN1C(=O)[C@H](CCCCN)NC(=O)[C@@H](N)CCCCN)C(C)C)C(=O)N[C@H](C(=O)N[C@@H](Cc1ccc(O)cc1)C(=O)N[C@@H]1C(=O)N[C@@H](CC(N)=O)C(=O)N[C@@H](CCCNC(=N)N)C(=O)N[C@@H](CCN)C(=O)N[C@@H]([C@@H](C)O)C(=O)N[C@H](CCN)C(=O)N[C@@H](CCCCN)C(=O)N[C@H](C(=O)N[C@@H](CCN)C(=O)N[C@@H](CCCNC(=N)N)C(=O)N[C@@H](Cc2ccc(O)cc2)C(=O)O)CSSC1(C)C)[C@@H](C)O [Example 118, Lys-Lys-Pro-Val-Hyp-Ile-Thr-Tyr-Pen-Asn-Arg-Dab-Thr-^DDab-Lys-Cys-Dab-Arg-Tyr] (HELM PEPTIDE1{K.K.P.V.[Hyp].I.T.Y.[Pen].N.R.[Dab].T.[NCC[C@@H](N[*:1])C(=O)[*:2]].K.C.[Dab].R.Y}$PEPTIDE1,PEPTIDE1,9:R3-16:R3$$$V2.0) | 0.125 µg/mL | 0.0625 µg/mL | 0.0625 µg/mL | 0% |
| CC[C@H](C)[C@H](NC(=O)[C@@H]1C[C@@H](O)CN1C(=O)[C@@H](NC(=O)[C@@H]1CCCN1C(=O)[C@H](CCCCN)NC(=O)[C@@H](N)CCCCN)C(C)C)C(=O)N[C@H](C(=O)N[C@@H](Cc1ccc(O)cc1)C(=O)N[C@H]1CSSC[C@@H](C(=O)N[C@@H](CCN)C(=O)N[C@@H](CCCNC(=N)N)C(=O)N[C@@H](Cc2ccc(O)cc2)C(=O)O)NC(=O)[C@H](CCCCN)NC(=O)[C@@H](CCN)NC(=O)[C@H]([C@@H](C)O)NC(=O)[C@H](CCN)NC(=O)[C@H](CCCNC(=N)N)NC(=O)[C@H](CC(N)=O)NC1=O)[C@@H](C)O [Example 119, Lys-Lys-Pro-Val-Hyp-Ile-Thr-Tyr-Cys-Asn-Arg-Dab-Thr-^DDab-Lys-Cys-Dab-Arg-Tyr] (HELM PEPTIDE1{K.K.P.V.[Hyp].I.T.Y.C.N.R.[Dab].T.[NCC[C@@H](N[*:1])C(=O)[*:2]].K.C.[Dab].R.Y}$PEPTIDE1,PEPTIDE1,9:R3-16:R3$$$V2.0) | 0.0625 µg/mL | 0.03125 µg/mL | 0.03125 µg/mL | 1% |
| CC[C@H](C)[C@H](NC(=O)[C@@H]1C[C@@H](O)CN1C(=O)[C@@H](NC(=O)[C@@H]1C[C@@H](O)CN1C(=O)[C@H](CCCCN)NC(=O)[C@@H](N)CCCCN)C(C)C)C(=O)N[C@H](C(=O)N[C@@H](Cc1ccc(O)cc1)C(=O)N[C@@H]1C(=O)N[C@@H](CC(N)=O)C(=O)N[C@@H](CCCNC(=N)N)C(=O)N[C@@H](CCN)C(=O)N[C@@H]([C@@H](C)O)C(=O)N[C@H](CCN)C(=O)N[C@@H](CCCCN)C(=O)N[C@H](C(=O)N[C@@H](CCN)C(=O)N[C@@H](CCCNC(=N)N)C(=O)N[C@@H](Cc2ccc(O)cc2)C(=O)O)CSSC1(C)C)[C@@H](C)O [Example 120, Lys-Lys-Hyp-Val-Hyp-Ile-Thr-Tyr-Pen-Asn-Arg-Dab-Thr-^DDab-Lys-Cys-Dab-Arg-Tyr] (HELM PEPTIDE1{K.K.[Hyp].V.[Hyp].I.T.Y.[Pen].N.R.[Dab].T.[NCC[C@@H](N[*:1])C(=O)[*:2]].K.C.[Dab].R.Y}$PEPTIDE1,PEPTIDE1,9:R3-16:R3$$$V2.0) | 0.125 µg/mL | 0.0625 µg/mL | 0.125 µg/mL | 0% |

Further lines, with some results ahead:

| Klebsiella pneumoniae SSI3010 MIC [1] | Escherichia coli ATCC 25922 MIC [2] | Escherichia coli MCR-1 Af 45 MIC [3] | SMILES | Hemolysis at 0.2 g/L [4] |
| --- | --- | --- | --- | --- |
| 0.125 µg/mL | 0.03125 µg/mL | 0.0625 µg/mL | CC[C@H](C)[C@H](NC(=O)[C@@H]1C[C@@H](O)CN1C(=O)[C@@H](NC(=O)[C@@H]1C[C@@H](O)CN1C(=O)[C@H](CCCCN)NC(=O)[C@@H](N)CCCCN)C(C)C)C(=O)N[C@H](C(=O)N[C@@H](Cc1ccc(O)cc1)C(=O)N[C@H]1CSSC[C@@H](C(=O)N[C@@H](CCN)C(=O)N[C@@H](CCCNC(=N)N)C(=O)N[C@@H](Cc2ccc(O)cc2)C(=O)O)NC(=O)[C@H](CCCCN)NC(=O)[C@@H](CCN)NC(=O)[C@H]([C@@H](C)O)NC(=O)[C@H](CCN)NC(=O)[C@H](CCCNC(=N)N)NC(=O)[C@H](CC(N)=O)NC1=O)[C@@H](C)O [Example 121, Lys-Lys-Hyp-Val-Hyp-Ile-Thr-Tyr-Cys-Asn-Arg-Dab-Thr-^DDab-Lys-Cys-Dab-Arg-Tyr] (HELM PEPTIDE1{K.K.[Hyp].V.[Hyp].I.T.Y.C.N.R.[Dab].T.[NCC[C@@H](N[*:1])C(=O)[*:2]].K.C.[Dab].R.Y}$PEPTIDE1,PEPTIDE1,9:R3-16:R3$$$V2.0) | 0% |
| 0.125 µg/mL | 0.0625 µg/mL | 0.125 µg/mL | CC[C@H](C)[C@H](NC(=O)[C@@H]1C[C@@H](O)CN1C(=O)[C@@H](NC(=O)[C@@H]1C[C@@H](O)CN1C(=O)[C@H](CCCCN)NC(=O)[C@@H](N)CCCCN)C(C)C)C(=O)N[C@H](C(=O)N[C@@H](Cc1ccc(O)cc1)C(=O)N[C@@H]1C(=O)N[C@@H](Cc2c[nH]cn2)C(=O)N[C@@H](CCCNC(=N)N)C(=O)N[C@@H](CCN)C(=O)N[C@@H]([C@@H](C)O)C(=O)N[C@H](CCN)C(=O)N[C@@H](CCCCN)C(=O)N[C@H](C(=O)N[C@@H](CCN)C(=O)N[C@@H](CCCNC(=N)N)C(=O)N[C@@H](Cc2ccc(O)cc2)C(=O)O)CSSC1(C)C)[C@@H](C)O [Example 122, Lys-Lys-Hyp-Val-Hyp-Ile-Thr-Tyr-Pen-His-Arg-Dab-Thr-^DDab-Lys-Cys-Dab-Arg-Tyr] (HELM PEPTIDE1{K.K.[Hyp].V.[Hyp].I.T.Y.[Pen].H.R.[Dab].T.[NCC[C@@H](N[*:1])C(=O)[*:2]].K.C.[Dab].R.Y}$PEPTIDE1,PEPTIDE1,9:R3-16:R3$$$V2.0) | 0% |
| 0.25 µg/mL | 0.125 µg/mL | 0.0625 µg/mL | CC[C@H](C)[C@H](NC(=O)[C@@H]1C[C@@H](O)CN1C(=O)[C@@H](NC(=O)[C@@H]1C[C@@H](O)CN1C(=O)[C@H](CCCCN)NC(=O)[C@@H](N)CCCCN)C(C)C)C(=O)N[C@H](C(=O)N[C@@H](Cc1ccc(O)cc1)C(=O)N[C@@H]1C(=O)N[C@@H](CC(N)=O)C(=O)N[C@@H](CCCNC(=N)N)C(=O)N[C@@H](CCN)C(=O)N[C@@H]([C@@H](C)O)C(=O)N[C@H](CCN)C(=O)N[C@@H](CCCCN)C(=O)N[C@H](C(=O)N[C@@H](CO)C(=O)N[C@@H](CCCNC(=N)N)C(=O)N[C@@H](Cc2ccc(O)cc2)C(=O)O)CSSC1(C)C)[C@@H](C)O [Example 123, Lys-Lys-Hyp-Val-Hyp-Ile-Thr-Tyr-Pen-Asn-Arg-Dab-Thr-^DDab-Lys-Cys-Ser-Arg-Tyr] (HELM PEPTIDE1{K.K.[Hyp].V.[Hyp].I.T.Y.[Pen].N.R.[Dab].T.[NCC[C@@H](N[*:1])C(=O)[*:2]].K.C.S.R.Y}$PEPTIDE1,PEPTIDE1,9:R3-16:R3$$$V2.0) | 0% |
